Measurements taken from patent US8481459B2, “Chemical inhibitors of ethylene biosynthesis” (Academia Sinica, priority 2010, dated 2013).

What was measured:
[1] = test system: etiolated eto1-4 seedlings; experiment: Triple response phenotype / hypocotyl length of etiolated eto1-4 seedlings; format: in vivo, Arabidopsis thaliana; conditions: 10 μM; etiolated eto1-4; FIG. 3
Procedure: All mutants and transgenic plants were derived from the wild-type Arabidopsis thaliana Columbia ecotype (Col-0) and cultivated under a long-day condition (16-h light/8-h dark at 22° C.) under exemplary e light (100-150 μE m^−2 s^−1). A reporter construct, 5×EBS::LUC (a generous gift from Drs. Hai Li and Anna N. Stepanova, Salk Institute, USA), containing 5 copies of EIN3 binding sequence (EBS) fused with luciferase gene (LUC) was transformed to eto1-4 and subsequently used for screening compounds of a chemical library. Ethylene mutants eto1-4, eto2-1, ctr1-1 and the EIN3 overexpression line (35S::EIN3) were described previously (Solano, et al. (1998) Genes Dev 12, 3703-3714). Seeds were sterilized with 30% bleach for 6 min and sown in half-strength Murashige and Skoog (0.5×MS) medium supplemented with 0.8% agar and stratified in the dark at 4° C. for 3-4 days before germination. For analysis of the triple response phenotype, stratified seeds were grown in the dark at 22° C. for 3 days before scoring the phenotype.
A DIVERSet library (ChemBridge Inc.) containing 10,000 small molecules (in DMSO) was used for chemical screening. Three rounds of chemical screenings were carried out in 0.5×MS agar medium containing individual chemicals in each well of 96- and 24-well micro-titer plates. The initial screening was performed by sowing 10 to 15 seeds in the wells of micro-titer plates containing small molecules at 50 μM to score the long-hypocotyl phenotype. For the second and third screenings, we used 25 μM of small molecules selected from the first round of screening to score and confirm the phenotype. The seedling phenotype was scored by use of a digital camera attached to a Zeiss stereomicroscope (SteREO V8), and quantitation of hypocotyl length was performed by use of NIH Image J software. AVG and silver thiosulfate (STS, by mixing silver nitrate and sodium thiosulfate at a 1:4 molar ratio immediately before use) were obtained from Sigma and used as controls to suppress ethylene biosynthesis and perception, respectively. Agar medium was supplemented with 1-aminocyclopropane-1-carboxylic acid (10 μM, Merck) to induce the triple response in etiolated seedlings.
Shortened hypocotyls in etiolated seedlings is one of the triple response phenotypes (Guzman, et al. (1990) Plant Cell 2, 513-523; Wang, et al. (2004) Nature 428, 945-950). Two chemical compounds negating ethylene response, AVG and STS, were included as a control for comparison.

[2] = test system: 5×EBS::LUC reporter (EIN3 binding sequence) in eto1-4; experiment: Luciferase activity of 5×EBS::LUC reporter in eto1-4 seedlings; format: in vivo, Arabidopsis thaliana; conditions: 10 μM
Procedure: For live imaging of luciferase activity, plants were first grown in the dark at 22° C. for 3 days, then under exemplary e light for 3 more days before the luciference of seedlings was imaged. Six-day-old seedlings were sprayed with luciferin (2 μM, Biosynth International Inc.) and kept in the dark for 5 min before collecting images by the Xenogen IVIS System (Caliper Life Sciences, Inc.). For quantitative assay of luciferase activity, the etiolated seedlings mentioned above were transferred to exemplary e micro-titer plates (Packard Optiplate-96, Perkin Elmer Inc.) for an additional 3 days under exemplary e light in 0.5×MS solution. The luciferase activity of seedlings was quantitated by use of a microplate reader (CHAMELEON, Hidex Inc.) in the presence of 2 μM luciferin.
To confirm the suppression of the eto1-4 phenotype resulting from disruption of the ethylene response, the following assays were performed. First, luciferase activity was analyzed with a transgenic reporter line harboring 5 copies of a synthetic promoter fusion with a luciferase gene (LUC), 5×EBS::LUC, in the eto1-4 background.

Compound | ranking in both hypocotyl length and ethylene level assays [1] | luciferase activity of 5×EBS::LUC in eto1-4 [2]
CC1(C)CC(=O)c2cnc(Nc3ccccc3)nc2C1 [Compound 9028] | most effective | 
O=C1CC(c2ccccc2Cl)Cc2nc(NC3CCCC3)ncc21 (centres unmarked) [Compound 8107] | most effective | 
CC1CC(=O)c2cnc(Nc3ccccc3)nc2C1 (centres unmarked) [Compound 2305] | most effective | 
silver thiosulfate [STS] |  | suppressed
CCCCNc1ncc2c(n1)CC(c1ccccc1)CC2=O (centres unmarked) [Compound 2616] | most effective | 
